Our source for the IC50, solubility and inhibition values is ChEMBL document CHEMBL6074684, “Structure-activity relationship study of novel evodiamine amino acid conjugates with potent anti-colorectal cancer efficacy” (Eur J Med Chem, 2025).

≈ marks a conversion by molar mass, not a printed value.

Data set [1] relates to RKO. Description: Antiproliferative activity against human RKO cells assessed as inhibition of cell growth incubated for 72 hrs by MTT assay. It is filed as functional, cell-based. (In general: Formazan colour is commonly taken as a measure of viable cells.)
In data set [2] the test system is HCT-116. The data set is described as follows: Antiproliferative activity against human […] cells assessed as inhibition of cell growth incubated for 72 hrs by MTT assay. Format: functional, cell-based. As to conditions: HCT-116, 72 h; call rule not given here.
Data set [3] deals with LoVo. The data set is described as follows: Antiproliferative activity against human LoVo cells assessed as inhibition of cell growth incubated for 72 hrs by MTT assay. Format: functional, cell-based.
The test system of data set [4] is HT-29. The data set is described as follows: Antiproliferative activity against human HT-29 cells assessed as inhibition of cell growth incubated for 72 hrs by MTT assay. Format: functional, cell-based. As to conditions: HT-29, 72 h.
Data set [5] in a line: Aqueous solubility of compound by HPLC analysis. It is filed as physicochemical.
Data set [6] concerns the target T1, DNA topoisomerase 1 (Homo sapiens) (UniProt P11387).
T1 sequence (whole entry): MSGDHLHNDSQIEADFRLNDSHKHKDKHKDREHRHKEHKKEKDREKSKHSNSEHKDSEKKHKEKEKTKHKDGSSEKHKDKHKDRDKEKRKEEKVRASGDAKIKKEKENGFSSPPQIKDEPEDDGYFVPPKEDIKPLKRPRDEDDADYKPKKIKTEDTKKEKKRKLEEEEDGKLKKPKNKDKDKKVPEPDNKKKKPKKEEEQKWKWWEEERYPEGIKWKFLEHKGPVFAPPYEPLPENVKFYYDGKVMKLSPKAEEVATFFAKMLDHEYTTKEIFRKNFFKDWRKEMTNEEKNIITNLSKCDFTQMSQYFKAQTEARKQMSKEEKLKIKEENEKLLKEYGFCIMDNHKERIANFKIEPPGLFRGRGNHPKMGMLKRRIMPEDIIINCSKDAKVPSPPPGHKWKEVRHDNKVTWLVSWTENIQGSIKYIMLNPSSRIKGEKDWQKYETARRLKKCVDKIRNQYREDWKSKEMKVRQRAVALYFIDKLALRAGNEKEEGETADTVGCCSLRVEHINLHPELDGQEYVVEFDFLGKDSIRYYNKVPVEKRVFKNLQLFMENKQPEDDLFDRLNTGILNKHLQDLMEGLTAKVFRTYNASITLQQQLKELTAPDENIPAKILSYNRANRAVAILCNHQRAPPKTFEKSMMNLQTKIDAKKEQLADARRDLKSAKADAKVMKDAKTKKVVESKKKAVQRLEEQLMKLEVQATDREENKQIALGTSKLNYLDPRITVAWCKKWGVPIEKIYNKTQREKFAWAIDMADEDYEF
The data set is described as follows: Inhibition of topoisomerase 1 (unknown origin) mediated DNA relaxation at 100 uM preincubated for 20 mins followed by pBR322 plasmid DNA addition and measured after 15 mins by red nucleic acid gel staining based agarose gel electrophoresis. The conditions noted are these: time 35.0 min.

The subject of data set [7] is MGC-803. Description: Antiproliferative activity against human MGC-803 cells assessed as inhibition of cell growth incubated for 72 hrs by MTT assay. It is filed as functional, cell-based. As to conditions: MGC-803, 72 h.
Data set [8] has as its system Huh-7. The data set is described as follows: Antiproliferative activity against human Huh-7 cells assessed as inhibition of cell growth incubated for 72 hrs by MTT assay. Format: functional, cell-based. The conditions noted are these: Huh-7, 72 h.
Data set [9] relates to HGC-27. Description: Antiproliferative activity against human HGC-27 cells assessed as inhibition of cell growth incubated for 72 hrs by MTT assay. Format: functional, cell-based. As to conditions: HGC-27, 72 h.
Data set [10] deals with SGC-7901. Description: Antiproliferative activity against human SGC-7901 cells assessed as inhibition of cell growth incubated for 72 hrs by MTT assay. The conditions noted are these: SGC-7901, 72 h. It is filed as functional, cell-based.
For data set [11], the system named is SK-HEP1. The data set is described as follows: Antiproliferative activity against human SK-HEP1 cells assessed as inhibition of cell growth incubated for 72 hrs by MTT assay. Format: functional, cell-based. The conditions noted are these: SK-HEP1, 72 h.
The test system of data set [12] is MCF7. The data set is described as follows: Antiproliferative activity against human MCF7 cells assessed as inhibition of cell growth incubated for 72 hrs by MTT assay. It is filed as functional, cell-based. The conditions noted are these: MCF7, 72 h.

As usually defined, the IC50 is the concentration that inhibits the measured activity by half. As a reminder, the solubility is how much of the substance goes into solution per volume. A lower solubility goes with little dissolved substance.

Consider `O=C1c2cc(F)ccc2N(c2cccc(F)c2)C2c3[nH]c4ccc(O)cc4c3CCN12` (racemic), for which the IC50 turned out to be 0.17 µM in data set [1], 0.2 µM in data set [2], 0.35 µM in data set [3] and 0.16 µM in [4]. The solubility in data set [5] was found to be 7.58 µg/mL (≈ 18.2 µM). In data set [6], the inhibition result was “Active; Little Effect Observed”.
With `CC(C)(C)OC(=O)N[C@@H](Cc1cnc[nH]1)C(=O)Oc1ccc2[nH]c3c(c2c1)CCN1C(=O)c2cc(F)ccc2N(c2cccc(F)c2)[C@@H]31`, the IC50 in data set [1] stood at 16.3 µM; in data set [2], 21 µM; in data set [7], 15.5 µM; in [3] it was 12.4 µM; in data set [8] it was 12.8 µM; in data set [9] it was 23.7 µM. Besides, the half-maximal inhibitory concentration (IC50) came to 66.5 µM in data set [10], 28.3 µM in data set [4], 33.5 µM in data set [11] and 47 µM in data set [12].
On to `CC(C)(C)OC(=O)NCC(=O)Oc1ccc2[nH]c3c(c2c1)CCN1C(=O)c2cc(F)ccc2N(c2cccc(F)c2)[C@@H]31`, for which the IC50 came to 38.6 µM in [1]; 33.1 µM in [2]; 29.6 µM in data set [7]; 26.4 µM in [3]; 17.2 µM in [8]; 32.1 µM in data set [9]. Besides, the half-maximal inhibitory concentration (IC50) in [10] turned out to be 42.6 µM; in data set [4], 24.1 µM; in data set [11], 30.5 µM; in [12] it was 38.9 µM.
For the compound `CC(C)(C)OC(=O)N[C@@H](CCC(N)=O)C(=O)Oc1ccc2[nH]c3c(c2c1)CCN1C(=O)c2cc(F)ccc2N(c2cccc(F)c2)[C@@H]31`, the half-inhibitory concentration (IC50) in data set [1] is 9.3 µM; in data set [2], 19.2 µM; in data set [7] it was 15.1 µM; in data set [3] it was 12.7 µM; in data set [8], 11.5 µM; in [9] it was 18.8 µM. Further, the IC50 in data set [10] turned out to be 59.6 µM; in [4], 26.8 µM; in data set [11], 37 µM; in data set [12], 24.6 µM. Moreover, in data set [6], the inhibition entry was “Active; Better Activity Than Evodiamine”.
In the case of `C[C@H](NC(=O)OC(C)(C)C)C(=O)Oc1ccc2[nH]c3c(c2c1)CCN1C(=O)c2cc(F)ccc2N(c2cccc(F)c2)[C@H]31`, the 50% inhibitory concentration (IC50) worked out at 0.12 µM in [1]; 0.37 µM in data set [2]; 0.31 µM in data set [7]; 0.23 µM in [3]; 0.16 µM in [8]; 0.27 µM in [9]. The IC50 in data set [10] amounted to 0.63 µM; in data set [4], 0.28 µM; in data set [11], 2.65 µM; in data set [12] it was 1.98 µM.
Turning to `CC(C)(C)OC(=O)NCC(=O)Oc1ccc2[nH]c3c(c2c1)CCN1C(=O)c2cc(F)ccc2N(c2cccc(F)c2)[C@H]31`, the IC50 in [1] is 0.095 µM; in [2], 0.2 µM; in [7], 0.21 µM; in data set [3] it was 0.17 µM; in data set [8], 0.16 µM; in [9], 0.2 µM. The concentration for half-maximal inhibition (IC50) turned out to be 0.48 µM in data set [10], 0.26 µM in data set [4], 1.39 µM in data set [11] and 1.19 µM in [12].
For the compound `CC(C)[C@H](NC(=O)OC(C)(C)C)C(=O)Oc1ccc2[nH]c3c(c2c1)CCN1C(=O)c2cc(F)ccc2N(c2cccc(F)c2)[C@@H]31`, the 50% inhibitory concentration (IC50) was found to be 11.9 µM in data set [1]; 29 µM in data set [2]; 20.8 µM in [7]; 21.9 µM in data set [3]; 14.2 µM in data set [8]; 22.3 µM in [9]. The half-maximal inhibitory concentration (IC50) in data set [10] is 44.3 µM; in data set [4], 25.8 µM; in [11] it was 37.8 µM; in [12], 30.4 µM.
`CC(C)C[C@H](NC(=O)OC(C)(C)C)C(=O)Oc1ccc2[nH]c3c(c2c1)CCN1C(=O)c2cc(F)ccc2N(c2cccc(F)c2)[C@@H]31`: the IC50 stood at 10.5 µM in data set [1]; 16.8 µM in [2]; 7.56 µM in data set [7]; 10.2 µM in [3]; 9.73 µM in data set [8]; 18.6 µM in data set [9]. In addition, the IC50 in data set [10] amounted to 41.8 µM; in [4] it was 21.4 µM; in data set [11] it was 35.1 µM; in data set [12], 22.7 µM.
Take `CC(C)(C)OC(=O)N[C@@H](Cc1c[nH]c2ccccc12)C(=O)Oc1ccc2[nH]c3c(c2c1)CCN1C(=O)c2cc(F)ccc2N(c2cccc(F)c2)[C@@H]31`: the concentration for half-maximal inhibition (IC50) in [1] was 15.9 µM; in data set [2], 24.2 µM; in data set [7], 18.6 µM; in [3], 18.3 µM; in data set [8], 13.5 µM; in data set [9], 25.6 µM. Besides, the half-inhibitory concentration (IC50) in [10] was found to be 67.3 µM; in data set [4], 30.2 µM; in data set [11] it was 36.6 µM; in data set [12] it was 30.6 µM.
Take `CC(C)(C)OC(=O)N[C@@H](COCc1ccccc1)C(=O)Oc1ccc2[nH]c3c(c2c1)CCN1C(=O)c2cc(F)ccc2N(c2cccc(F)c2)[C@@H]31`: the half-maximal inhibitory concentration (IC50) in [1] amounted to 16.8 µM; in data set [2] it was 24.6 µM; in data set [7] it was 16.2 µM; in data set [3], 15.3 µM; in [8], 10.1 µM; in data set [9], 20.6 µM. In addition, the IC50 was 57.1 µM in [10], 29.4 µM in data set [4], 35.9 µM in data set [11] and 22.1 µM in data set [12].
In the case of `CC(C)(C)OC(=O)N[C@@H](COCc1ccccc1)C(=O)Oc1ccc2[nH]c3c(c2c1)CCN1C(=O)c2cc(F)ccc2N(c2cccc(F)c2)[C@H]31`, the half-inhibitory concentration (IC50) was determined as 0.11 µM in data set [1]; 0.4 µM in data set [2]; 0.41 µM in data set [7]; 0.19 µM in [3]; 0.3 µM in [8]; 0.32 µM in [9]. In addition, the concentration for half-maximal inhibition (IC50) in data set [10] came out at 0.54 µM; in [4] it was 0.38 µM; in data set [11], 0.65 µM; in data set [12], 0.83 µM.
`CC(C)(C)OC(=O)N[C@@H](Cc1cnc[nH]1)C(=O)Oc1ccc2[nH]c3c(c2c1)CCN1C(=O)c2cc(F)ccc2N(c2cccc(F)c2)[C@H]31`: the IC50 in [1] is 0.11 µM; in data set [2], 0.36 µM; in data set [7], 0.2 µM; in [3], 0.12 µM; in data set [8], 0.27 µM; in data set [9] it was 0.16 µM. Besides, the half-inhibitory concentration (IC50) in [10] was determined as 0.23 µM; in data set [4], 0.36 µM; in [11], 0.77 µM; in data set [12] it was 0.74 µM.
With `CSCC[C@H](NC(=O)OC(C)(C)C)C(=O)Oc1ccc2[nH]c3c(c2c1)CCN1C(=O)c2cc(F)ccc2N(c2cccc(F)c2)[C@H]31`, the concentration for half-maximal inhibition (IC50) in data set [1] worked out at 0.14 µM; in data set [2], 0.36 µM; in [7] it was 0.33 µM; in data set [3] it was 0.2 µM; in data set [8], 0.21 µM; in [9], 0.21 µM. The IC50 in data set [10] stood at 0.51 µM; in data set [4] it was 0.33 µM; in [11], 0.68 µM; in [12] it was 0.78 µM.
On to `CC(C)(C)OC(=O)N[C@@H](Cc1ccccc1)C(=O)Oc1ccc2[nH]c3c(c2c1)CCN1C(=O)c2cc(F)ccc2N(c2cccc(F)c2)[C@H]31`, for which the 50% inhibitory concentration (IC50) was determined as 0.09 µM in data set [1]; 0.36 µM in [2]; 0.22 µM in [7]; 0.23 µM in [3]; 0.2 µM in data set [8]; 0.28 µM in data set [9]. Further, the concentration for half-maximal inhibition (IC50) was found to be 0.49 µM in data set [10], 0.43 µM in data set [4], 0.77 µM in [11] and 0.95 µM in [12].
As for `CSCC[C@H](NC(=O)OC(C)(C)C)C(=O)Oc1ccc2[nH]c3c(c2c1)CCN1C(=O)c2cc(F)ccc2N(c2cccc(F)c2)[C@@H]31`, the half-inhibitory concentration (IC50) in data set [1] came to 20.5 µM; in data set [2] it was 20.2 µM; in data set [7], 17.8 µM; in data set [3] it was 14.9 µM; in [8], 13.8 µM; in data set [9], 28.6 µM. Besides, the IC50 in [10] stood at 46.1 µM; in [4], 28.7 µM; in data set [11], 38.5 µM; in data set [12], 50.5 µM.
